Test results reported in patent publication US20060287316A1, “METHOD FOR IMPROVING PHARMACOKINETICS OF PROTEASE INHIBITORS AND PROTEASE INHIBITOR PRECURSORS” (priority 2005, published 2006).

What was measured:
[1] = Plasma concentration after single oral dose in rats (in vivo cleavage of the phosphate group); design: species or system male Sprague-Dawley rats; conditions: 50 mg/Kg po, vehicle Mix, 3 rats
Procedure: To assess the extent of in vivo cleavage of the phosphate group from the putative compounds, PL-100, PL-462 (based on PL-100), PL-337 and PL-515 (based on PL-337) compounds were administered po (per os, (i.e., by mouth)) (50 mg/kg) to male Sprague-Dawley rats and their plasma concentration measured at different time intervals post-administration.
All test articles (PL-100, PL-462, PL-337 and PL-515) were prepared in different vehicle at the final concentration of 25 mg/mL. The vehicle composition is as follows: (1) 20% ethanol; 50% propylene glycol; 0.05% w/v Tween 20 and water (Mix); (2) PBS buffer (PBS).
Test articles were administered to male Sprague-Dawley rats at a single oral dose of 50 mg/kg. Each article was tested in three rats. Blood samples (0.2-0.3 mL) were collected at the post-dose time of 10, 20, 40, 60, 120, 180 and 360 minutes. The harvested blood was centrifuged to isolate plasma. The resulting plasma was separated and stored at −70° C.
Plasma samples together with standards and quality control samples were treated to precipitate proteins, then analyzed by HPLC-MS, for the presence of PL-462, PL-100, PL-515 and PL-337.

[2] = Partition coefficient (LogP), octanol / phosphate buffer; type: physicochemical; conditions: octanol / phosphate buffer pH 7.4
From the text: The concentration of the compounds in the phases was detected by LC-MS.

## COC(=O)N[C@H](C(=O)NCCCC[C@@H](CO)N(CC(C)C)S(=O)(=O)c1ccc(N)c(F)c1)C(c1ccccc1)c1ccccc1 [PL-337, (1-{5-[(4-amino-3-fluoro-benzenesulfonyl)-isobutyl-amino]-6-hydroxy-hexylcarbamoyl}-2,2-diphenyl-ethyl)-carbamic acid methyl ester]
[1]
  AUC: 1.180 ± 0.196 μg/hr * ml
[1]; male, Sprague-Dawley, rat, plasma
  Cmax: 681 ± 131 nM
[1]; male, Sprague-Dawley, rat, plasma, read-out: Tmax (converted)
  Tmax: 1 h
[2]
  logP: 3.8
